# Results from a melting point compilation (Tetko et al.).
row,SMILES,melting point
1,COc1cc(C=NO)ccc1OC(F)F,57 to 59 °C
2,NC(=O)c1ccc(C(=O)O)o1,286 to 288 °C
3,CS(=O)(=O)CC1(CBr)CC1,50 to 52 °C
4,O=c1[nH]cnc2ccc(I)cc12,272 to 274 °C
5,O=C(O)C1CCCCN1C(=O)c1ccc(Br)c(F)c1 (stereo not given),134 to 136 °C
6,COc1cc(C=O)ccc1OCC(=O)N1CCCC1,117 to 119 °C
7,CC(C)Cc1nc(C(=O)O)cs1,104 to 106 °C
8,c1ccc2c(c1)NCCN2C1CC1,58 to 60 °C
9,Nc1nnc(Cl)c2ccccc12,159 to 161 °C
10,CCC(CC(=O)O)c1ccccc1 (stereo not given),59 to 61 °C
11,O=C(O)C1=CCCSC1,103 to 105 °C
12,CSc1ccc(OCCCl)cc1,63 to 65 °C
13,O=c1cc2c(n[nH]1)CCOC2,218 to 220 °C
14,Cc1csc(Nc2ccccc2)n1,74 to 76 °C
15,Nc1nc(-c2ccccc2O)cs1,140 to 142 °C
16,CCO/C=C(\C#N)c1nc(C)cs1,70 to 72 °C
17,CC12CSCC(=O)N1C(C(=O)O)CS2 (stereo not given),202 to 204 °C
18,Nc1ccc(Br)cc1S(=O)(=O)N1CCOCC1,142 to 144 °C
19,COc1ccc(CN2C(=O)c3ccccc3C2=O)cc1C(=O)O,143 to 145 °C
20,Cc1ccc2c(c1)C(=NO)C(=O)N2,239 to 241 °C

row,SMILES,melting point
1,Cn1ccc2cc[nH]c(=O)c21,190 to 192 °C
2,N#Cc1ccccc1N1CCOCC1,48 to 50 °C
3,Cc1ccnc(-c2ccc(N)cc2)n1,118 to 120 °C
4,COc1ccc(O)c(C(=O)c2ccccc2)c1,81 to 83 °C
5,COC(=O)C(NS(C)(=O)=O)C(C)C (stereo not given),46 to 48 °C
6,Cn1cnnc1S(C)(=O)=O,132 to 134 °C
7,Nc1ccc(C(=O)N2CCOCC2)c(Cl)c1,205 to 207 °C
8,O=c1nc2ccccc2c(-c2ccccc2)[nH]1,254 to 256 °C
9,NCc1nc(-c2cccs2)no1,141 to 143 °C
10,Cc1nccn1-c1ccc(C#N)cn1,213 to 215 °C
11,BrCc1cccc2ccccc12,49 to 51 °C
12,Nc1cccc(Cl)c1N1CCOCC1,154 to 156 °C
13,Sc1nnc(-c2c[nH]c3ccccc23)n1CC1CCCO1 (stereo not given),251 to 253 °C
14,COCCS(=O)(=O)Cc1cccc(S(=O)(=O)Cl)c1,109 to 111 °C
15,CCc1cccnc1N,38 to 40 °C
16,Nc1nc(CN2CCNCC2)nc2ccccc12,213 to 215 °C
17,CCOc1c(Br)cc(C=O)cc1OC,84 to 86 °C
18,O=C(O)c1cnc(COc2ccccc2)s1,174 to 176 °C
19,O=[N+]([O-])c1ccc2oc(CCl)nc2c1,115 to 117 °C
20,NC(=O)c1c(N)sc2c1CCN(Cc1ccccc1)C2,76 to 78 °C

row,SMILES,melting point
1,CC1(c2ccccn2)NC(=O)NC1=O (stereo not given),170 to 172 °C
2,O=C(CCl)NCc1cccc(F)c1,53 to 55 °C
3,O=C(O)c1c[nH]c2ncccc12,213 to 215 °C
4,CCc1oc(C(=O)O)cc1C,133 to 135 °C
5,O=Cc1c[nH]c2cc(Cl)ccc12,209 to 211 °C
6,Nc1nc(-c2c(F)cccc2F)cs1,179 to 181 °C
7,COc1ccc2[nH]c(C(=O)O)cc2c1OC(F)F,231 to 233 °C
8,NS(=O)(=O)c1ccc([N+](=O)[O-])cc1[N+](=O)[O-],149 to 151 °C
9,CC(=O)N1CCCCC1CC(=O)O (stereo not given),112 to 114 °C
10,O=C(O)C=CC(=O)NCc1cccnc1,92 to 94 °C
11,Cc1ccc(OCCC(=O)O)cc1C,155 to 157 °C
12,O=Cc1cnc2cnccn12,178 to 180 °C
13,Nc1ccn(CCN2CCNC2=O)n1,118 to 120 °C
14,Cc1ccc(CNC(=O)C(C#N)=CN(C)C)cc1,135 to 137 °C
15,NC(=S)NCc1ccccc1,163 to 165 °C
16,Cc1nc(CCC(=O)O)oc1-c1ccccc1,162 to 164 °C
17,COCc1nnc(NN)s1,109 to 111 °C
18,COC(=O)c1sc(Cl)nc1Cl,54 to 56 °C
19,Nc1cc(F)c(Oc2ccc(F)cc2)cc1C(=O)O,194 to 196 °C
20,NC(CC(=O)N1CCCCC1)=NO,179 to 181 °C
